Here are results for two substances from patent US20250304973A1, “HIGH-AFFINITY THROMBIN APTAMERS AND METHODS OF USE” (Ayass Bioscience LLC, priority 2024, published 2025).

For data set [1], the target named is T1, human alpha-thrombin protein (Homo sapiens, UniProt P00734).
T1 construct: Native human alpha-thrombin protein; purchased ThermoFisher Scientific RP-43100; host or cells: native protein
Kind of data set: ELISA-based binding assay of biotinylated thrombin aptamers to thrombin protein. The settings on record: for Kd: ELISA-based competition assay, 5′ biotin aptamer with or without 100-fold excess non-biotinylated aptamer, estimated, read-out: binding affinity to thrombin, dissociation constant (Kd); for binding to immobilized human thrombin (absorbance at 450 nm): top nine enriched aptamers, biotinylated, FIG. 2A. The protocol:
135. Native human alpha-thrombin protein (ThermoFisher Scientific, cat #RP-43100, Waltham, MA, USA) was added to each well of a 96-well plate (Nunc MaxiSorp flat-bottom 96-well plates, ThermoFisher Scientific, cat #44-2404-21, Waltham, MA, USA) at a concentration of 250 nM in Tris-buffered saline with a volume of 100 μL per well. The plate was then incubated at 4° C. for 16 h to allow the wells to become coated with thrombin. After removing the thrombin solution, the wells were washed and blocked using blocking buffer (20 mM Tris, 150 mM NaCl pH 7.5, 2% BSA, 0.1% Tween 20 and 100 μg/mL of sheared salmon sperm DNA) for a 1 h duration. Next, biotinylated aptamers at the indicated concentrations in a volume of 100 μL were added to the wells in an incubation buffer (20 mM Tris, 150 mM NaCl pH 7.5, 0.1% BSA, 0.1% Tween 20 and 100 μg/mL of sheared salmon sperm DNA) and incubated for 1 h at room temperature. In the competition binding assay, unlabeled aptamers were added along with the biotinylated aptamers, with the unlabeled aptamers being present in a 100-fold excess compared to the biotinylated aptamers. Following three washing steps with wash buffer (20 mM Tris, 150 mM NaCl pH 7.5, 0.1% BSA and 0.1% Tween 20), streptavidin-HRP (ThermoFisher Scientific, cat #21130, Waltham, MA, USA) was added at a dilution of 1:5000 in the incubation buffer. The plate was washed again three times to remove any unbound reagents. The bound biotinylated aptamers were then detected using 3,3′,5,5′-Tetramethylbenzidine (TMB) substrate (ThermoFisher Scientific, cat #34021, Waltham, MA, USA) following the manufacturer's instructions.

Data set [2] has as its system human citrated plasma. As to the kind of experiment: Prothrombin time (PT) assay in human citrated plasma. It counts as biochemical. Particulars: 2 uM, 2 h, versus untreated control. Here is the method:
(§1) Plasma was prepared by centrifugation for 10 min at 2000×g. In vitro activity assays were performed on ACLTOP analyzer manufactured by Instrumentation Laboratory, which is a type of coagulation analyzer commonly used in clinical laboratories to measure clotting times and assess coagulation parameters. The ACLTOP analyzer is designed to perform a wide range of coagulation tests, including Factor II activity, prothrombin time (PT), activated partial thromboplastin time (APTT), fibrinogen, and other related assays. ACLTOP analyzer uses HemosIL reagents developed by Instrumentation Laboratory company (Bedford, MA, USA) to perform coagulation tests.
PT time was measured using RecombiPlasTin 2G for quantitative determination in human citrated plasma of PT and Fibrinogen on an ACLTOP coagulation analyzer manufactured by Instrumentation Laboratory (Bedford, MA, USA). To assess the activity of the aptamers in a dose-dependent manner in whole blood, human blood samples were collected in citrate-treated tubes. The blood samples were then incubated at room temperature for 2 h in the absence or presence of varying concentrations of the thrombin aptamers. To measure the Prothrombin Time (PT) on the ACLTOP coagulation analyzer, plasma was obtained by centrifuging the samples at 1500×g for 10 min at 4° C. For the dose dependence study, concentrations of 1 uM, 2 uM, 3 uM, and 4 uM of AYA1809002 and AYA1809004 were utilized.
Modified aptamers chemically crosslinked with TAG, PEG, and cholesterol entities at the 3′ end, were purchased from IDT (Integrated DNA Technologies, Coralville, IA, USA). The impact of modified AYA1809002 and AYA1809004 aptamers on Factor II activity, PT, and APTT was evaluated using the same protocol as was used for the unmodified aptamers. Additionally, the potential for reversal was investigated using the respective reverse complement for each aptamer.

The test system of data set [3] is human citrated plasma. Kind of data set: Activated partial thromboplastin time (APTT) assay in human citrated plasma. The class given is biochemical. The settings on record: 2 uM, 2 h, versus untreated control. The protocol:
as §1, with “137. Sterile human blood in sodium citrate was purchased from the Rockland Immuno- chemicals, Inc (cat #R214-0050, Pottstown, PA 19464, USA). Plasma” for “Plasma”
140. […] APTT time was measured using the synthetic phospholipid reagent SynthASIil for quantitative determination in human citrated plasma on an ACLTOP coagulation analyzer manufactured by Instrumentation Laboratory (Bed- ford, MA, USA).
146. Modified aptamers chemically crosslinked with TAG, PEG, and cholesterol entities at the 3′ end, were purchased from IDT (Integrated DNA Technologies, Coralville, IA, USA). The impact of modified AYA1809002 and AYA1809004 aptamers on Factor II activity, PT, and APTT was evaluated using the same protocol as was used for the unmodified aptamers. Additionally, the potential for reversal was investigated using the respective reverse complement for each aptamer.

Data set [4] has as its system Salmonella typhimurium strains TA98, TA100, TA1535, TA1537 and Escherichia coli strains wp2 [pKM101] and wp2 uvrA. Kind of data set: Ames test (Xenometrix Ames MPF PENTA I). It counts as cell-based. Particulars: 0.5 uM to 10 uM; with and without S9. Here is the method:
148. The mutagenic potential of AYA1809002 and AYA1809004 was evaluated using the Ames test with the Xenometrix Ames MPF PENTA I kit, including S9 and Positive Controls (Aniara Diagnostica, code: ACO1-512-S2-P; manufacturer's part number: C01-512-S2-P, West Chester Township, OH).
165. To assess the mutagenicity of the aptamers, we performed Ames test, a widely used assay for evaluating the mutagenicity of chemical compounds. The Ames test is a bac-terial reverse mutation assay that detects the ability of a substance to induce mutations in the DNA of certain strains of bacteria. It utilizes various bacterial strains, including Salmonella typhimurium strains TA98, TA100, TA1535, and TA1537, as well as the Escherichia coli strains wp2 [pKM101]and wp2 uvrA. To evaluate the mutagenic potential of an aptamer, amino acid-requiring bacterial organisms are exposed to different concentrations of the aptamer and mutagenic events are assessed by selecting for reversion events. In this context, the aptamers AYA1809002 and AYA1809004 were supplemented at increasing concentrations ranging from 0.5 uM to 10 uM.

Entries after “also recorded” stand apart in the source; their conditions may differ.

What is called Kd is the constant that tells how readily two partners part at equilibrium. On to “AYA1809004: ssDNA thrombin aptamer TCGTCAAGGTACGGTTGGGGGGGTGGGTGTTGACGTTGAA (DNA, backbone not given here)”, for which, in data set [1], the Kd is 13 nM and the “binding to immobilized human thrombin (absorbance at 450 nm)” value is given as “strong binding capabilities”. The “increase in PT time” value in the data set with human citrated plasma [2] is reported as “three-fold increases”. In the data set on human citrated plasma [3], the “increase in APTT time” value is listed as “approximate four-fold increase”. Moreover, the “mutagenicity (revertants)” value in data set [4] is reported as “do not exhibit mutagenic properties”.
As for “AYA1809002: ssDNA thrombin aptamer GCGGTGTTGCTGGGGTTGGGAGGTTGGAGGAAGCAATCGC”, in data set [1], the Kd is 10 nM and the “binding to immobilized human thrombin (absorbance at 450 nm)” value was “strong binding capabilities”. Moreover, the “increase in PT time” value with human citrated plasma [2] is listed as “three-fold increases”. The “increase in APTT time” value in the data set with human citrated plasma [3] is listed as “approximate four-fold increase”. For the same substance, the “mutagenicity (revertants)” value in data set [4] is “do not exhibit mutagenic properties; also recorded: did not exhibit mutagenic properties”.
